Legend:
Format in all cases: cell-based
GPX4 and SEPHS2 = test: selenoprotein expression after selenite supplementation; conditions: supplementation with selenite to media
SLC7A11 = molecular target: T1, SLC7A11 (Homo sapiens, UniProt Q9UPY5); test: total intracellular selenium levels after selenite supplementation; conditions: knockout of SLC7A11
T1 construct: endogenous in cells
T1 sequence (Q9UPY5 1-501): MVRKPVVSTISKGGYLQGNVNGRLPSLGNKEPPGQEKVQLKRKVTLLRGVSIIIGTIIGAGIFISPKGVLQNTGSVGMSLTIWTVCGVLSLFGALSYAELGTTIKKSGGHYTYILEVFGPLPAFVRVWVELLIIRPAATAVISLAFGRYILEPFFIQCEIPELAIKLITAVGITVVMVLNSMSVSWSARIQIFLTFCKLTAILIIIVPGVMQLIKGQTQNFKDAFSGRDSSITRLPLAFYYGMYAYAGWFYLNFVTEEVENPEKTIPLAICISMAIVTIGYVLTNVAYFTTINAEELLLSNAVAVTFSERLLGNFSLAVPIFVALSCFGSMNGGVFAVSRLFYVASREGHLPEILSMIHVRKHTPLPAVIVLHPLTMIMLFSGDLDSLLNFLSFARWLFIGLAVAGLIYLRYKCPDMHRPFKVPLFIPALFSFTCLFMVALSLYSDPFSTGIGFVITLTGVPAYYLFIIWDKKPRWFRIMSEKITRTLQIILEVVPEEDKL
T1 sequence (P08195 1-529 partner): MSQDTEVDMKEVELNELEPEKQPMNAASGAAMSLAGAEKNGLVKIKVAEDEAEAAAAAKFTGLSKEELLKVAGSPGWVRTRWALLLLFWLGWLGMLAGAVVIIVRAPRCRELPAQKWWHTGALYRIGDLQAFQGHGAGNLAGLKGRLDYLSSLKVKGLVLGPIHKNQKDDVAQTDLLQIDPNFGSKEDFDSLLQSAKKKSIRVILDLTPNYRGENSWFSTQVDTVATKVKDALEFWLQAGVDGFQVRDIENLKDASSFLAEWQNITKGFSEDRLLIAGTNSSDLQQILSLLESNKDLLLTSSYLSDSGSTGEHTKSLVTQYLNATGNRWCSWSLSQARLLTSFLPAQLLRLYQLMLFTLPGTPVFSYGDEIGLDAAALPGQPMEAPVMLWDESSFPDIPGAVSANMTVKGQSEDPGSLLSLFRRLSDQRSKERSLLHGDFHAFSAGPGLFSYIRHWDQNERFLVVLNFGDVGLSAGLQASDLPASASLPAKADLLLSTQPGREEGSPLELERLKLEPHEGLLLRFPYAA
Source text: SLC7A11 was 5.5-fold enriched in SEPHS2-sensitive cell lines (FIG. 4C).

U251 cells = test: CRISPR/Cas9 screen of candidate selenium transporters: toxicity of 12 μM selenite; conditions: both guides against SLC7A11, U251 cells
Protocol: We compared the cells that are sensitive to SEPHS2 KO vs those that are not sensitive to identify key drivers of selenide production. We examined these lines for susceptibility to high, toxic doses of selenite as it is an abundant and bioavailable form of selenium. We observed a strong correlation between susceptibility to high-dose selenite and to SEPHS2 KO (FIG. 4A). […] Two guides per candidate transporter were knocked out in U251 cells and effects on the toxicity of 12 μM selenite were examined.

U251 GBM cell line = test: selenite treatment in conjunction with SEPHS2 KO (growth); conditions: 12 uM selenite; growth normalized to SEPHS2 KO cells
Protocol: FIGS. 2A-D provide evidence that SEPHS2 plays a detoxifying role in U251 GBM cell line. (A) Knockdown of either SEPHS2 or SEPSECS can block selenoprotein expression. (B) However, only SEPHS2 KO has significant toxicity. (C) Model for ‘pushing’ toxicity in which if SEPHS2 plays a detoxifying role, its KO should synergize with increased selenited input. (D) Synergy is indeed seen with 12 uM selenite treatment in conjunction with SEPHS2 KO. Growth is normalized to the already lower growth rate of the SEPHS2 KO cells, thus the bars in asterisks indicate (statistically significant) synergy.
We had classified SEPHS2 as a putative detoxifier as its substrate, selenide, is the most toxic form of selenium^12. The notion of SEPHS2 as a detoxifier has not previously been explored, and SEPHS2 is simply known for its enzymatic role (which cannot be replaced by its isoform, SEPHS1^13) as an intermediate step in producing selenocysteine for selenocysteinyl-tRNA production. The selenocysteine producing pathway is a simple and linear pathway starting from dietary […]—or […] or other inorganic forms which can be converted to selenite, selenite being the most common form^14,15. Selenite is imported and converted through in an unclear manner to form selenide, which is then metabolized by SEPHS2 to form selenophosphate, accompanied by ATP hydrolysis. […]

Q: Which “expression of selenoproteins GPX4 and SEPHS2” value (GPX4 and SEPHS2) does the source give for O=[Se](O)O [selenite] here?
A: Its value is “increased expression”.

Q: What about the “total intracellular selenium due to supplemented selenite” value (SLC7A11) of the same compound?
A: The value was “prevented any increase”.

Q: And the “toxicity of high-dose selenite after knockout of SLC7A11” value (U251 cells)?
A: The value was “complete rescue”.

Q: And the “growth with selenite in conjunction with SEPHS2 KO” value (U251 GBM cell line)?
A: The value was “Synergy”.
